In ChEMBL document CHEMBL4052608, “Hes1-Binding Compounds Isolated by Target Protein Oriented Natural Products Isolation (TPO-NAPI)” (2017):
Activity calls are given as the source filed them. No cut-off for these calls is given here.

Key:
[1] = system: MEB5; experiment: Increase in neuronal differention in mouse MEB5 neurospheres at 10 uM after 4 days by DAPI dye-based fluorescence confocal laser scaning microscopic analysis; type: functional
[2] = target: T1, Transcription factor HES-1 (Rattus norvegicus) (UniProt Q04666); experiment: Binding affinity to rat GST-tagged truncated HES1 (151 to 281 residues) expressed in Escherichia coli JM109 after 2 hrs by HPLC based bead assay
T1 sequence (whole entry): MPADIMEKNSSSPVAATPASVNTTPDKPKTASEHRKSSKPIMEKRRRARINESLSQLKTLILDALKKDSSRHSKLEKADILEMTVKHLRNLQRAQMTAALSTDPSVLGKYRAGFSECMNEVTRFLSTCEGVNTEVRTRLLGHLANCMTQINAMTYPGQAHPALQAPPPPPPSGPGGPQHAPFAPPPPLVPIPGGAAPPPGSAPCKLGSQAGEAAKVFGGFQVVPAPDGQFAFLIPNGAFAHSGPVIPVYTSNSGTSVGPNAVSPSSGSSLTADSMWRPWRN

[3] = target: T1, Transcription factor HES-1 (Rattus norvegicus); experiment: Binding affinity to rat GST-tagged truncated HES1 (1 to 95 residues) expressed in Escherichia coli JM109 after 2 hrs by HPLC based bead assay
[4] = target: T1, Transcription factor HES-1 (Rattus norvegicus); experiment: Binding affinity to rat GST-tagged truncated HES1 (47 to 156 residues) expressed in Escherichia coli JM109 after 2 hrs by HPLC based bead assay
[5] = system: MEB5; experiment: Induction of neuronal differention in mouse MEB5 neurospheres at 10 uM after 4 days by DAPI dye-based fluorescence confocal laser scaning microscopic analysis; type: functional
[6] = target: T1, Transcription factor HES-1 (Rattus norvegicus); experiment: Binding affinity to rat GST-tagged truncated HES1 (47 to 281 residues) expressed in Escherichia coli JM109 after 2 hrs by HPLC based bead assay
[7] = system: MEB5; experiment: Induction of neuronal differention in mouse MEB5 neurospheres at 100 uM after 4 days by DAPI dye-based fluorescence confocal laser scaning microscopic analysis; type: functional, cell-based

| Structure (SMILES) | Activity [1] | Activity [2] | Activity [3] | Activity [4] | Activity [5] | Activity [6] | Activity [7] |
| --- | --- | --- | --- | --- | --- | --- | --- |
| CC1=C\C=C\C=C\CC(C)NC(=O)/C=C/C=C/C=C/C(C)C(O)C(O)C(O)CC(O)/C=C\C=C\1 (centres undefined) | 17% | Active | Active | Active | 30% | Active | – |
| CCCC(CCC)C(=O)O | – | – | – | – | – | – | Active |
| C/C=C/C=C/C=C/[C@@H]1NCC[C@@H](O)[C@H]1C | 34% | – | – | – | 35% | – | – |
